Laboratory results from patent publication US20110319491A1, “ANHYDROUS DEPIGMENTING COMPOSITIONS COMPRISING, WITHIN THE FATTY PHASE THEREOF, A SOLUBILIZED PHENOLIC COMPOUND AND A RETINOID” (GALDERMA RESEARCH & DEVELOPMENT, priority 2009, published 2011).

Key:
[1] = in all the solvents that may be used for retinoids; cited from earlier work
[2] = Chemical stability of the formulations (HPLC assay of the active agents); format: physicochemical
Experimental: The chemical stability is measured by assaying the active agents by external calibration in HPLC and the results are expressed as a % of […] relative to the theoretical value.

Chemical stability: adapalene assay, % relative to the theoretical value ([2]; in composition of Example 2, 40° C., T + 1 M): 92.4% | Chemical stability: adapalene assay, % relative to the theoretical value ([2]; in composition of Example 2, 40° C., T + 2 M): 96.8% | Chemical stability: adapalene assay, % relative to the theoretical value ([2]; in composition of Example 2, 40° C., T + 3 M): 94.5% | Chemical stability: adapalene assay, % relative to the theoretical value ([2]; in composition of Example 2, RT, T + 1 M): 94% | Chemical stability: adapalene assay, % relative to the theoretical value ([2]; in composition of Example 2, RT, T + 2 M): 97.4% | Chemical stability: adapalene assay, % relative to the theoretical value ([2]; in composition of Example 2, RT, T + 3 M): 95.3% | Chemical stability: adapalene assay, % relative to the theoretical value ([2]; in composition of Example 3, 4° C., T + 1 M): 104% | Chemical stability: adapalene assay, % relative to the theoretical value ([2]; in composition of Example 3, 4° C., T + 2 M): 107.0% | Chemical stability: adapalene assay, % relative to the theoretical value ([2]; in composition of Example 3, 40° C., T + 1 M): 108% | Chemical stability: adapalene assay, % relative to the theoretical value ([2]; in composition of Example 3, 40° C., T + 2 M): 106.0% | Chemical stability: adapalene assay, % relative to the theoretical value ([2]; in composition of Example 3, RT, T0): 108.7% | Chemical stability: adapalene assay, % relative to the theoretical value ([2]; in composition of Example 3, RT, T + 1 M): 106% | Chemical stability: adapalene assay, % relative to the theoretical value ([2]; in composition of Example 3, RT, T + 2 M): 106.0%
SMILES: COc1ccc(-c2ccc3cc(C(=O)O)ccc3c2)cc1C12CC3CC(CC(C3)C1)C2 [Adapalene, 6-(3-(1-adamantyl)-4-methoxyphenyl)-2-naphthoic acid]
Solubility of adapalene (in words) [1]: insoluble
